The subject of assay [1] is PBMC's from two healthy donors. Kind of assay: Human Mixed Lymphocyte Reaction (hMLR). The settings on record: 3H-thymidine incorporation, read-out: human MLR (IC50). Format: cell-based. As to the method: Human Mixed Lymphocyte Reaction (hMLR)
PBMC's were isolated from two healthy donors by Ficoll gradient. Cells were resuspended with 4 mL assay media and counted with a Coulter Counter. Both cell populations were resuspended to 1×10^7/mL. Stimulator cells were irradiated for 2.5 min (2000 RAD) in cesium irradiator. 5×10^5 cells were added to duplicate wells of the plate. Included were quadruplicate wells receiving responder cells alone and stimulator cells alone. The compound to be tested was solubilized in DMSO. A series of 1:3 dilutions were performed to achieve a concentration range of 0.45 nM-3 uM. One hundred μl of the solutions to be tested were added to the cell plate (100 μl of 2% DMSO/media added to control wells). Plates were then incubated for 2.5 days at 37° C. with 5% CO2. Plates were pulsed with 50 μl/well 3H-thymidine at 0.5 uCi/well then incubated for 6 hours at 37° C. with 5% CO2. Cells were harvested using Cell Harvester (TomTec) and counted on TopCount (Perkin Elmer).
(Dividing cells build labelled thymidine or BrdU into new DNA.)

The next assay deals with sLFA-1/ICAM-1 (Homo sapiens, UniProt P05107+P20701, DEL701-769). Kind of assay: sLFA-1/ICAM-1 ELISA. Format: binding. As to the method:
(§1) sLFA-1/ICAM-1 ELISA and Mac-1/ICAM-1 ELISA
(§2) Plates were coated with either 50 μl/well of 2.0 ug/ml solution of sLFA-1 or Mac-1 receptor in divalent cation buffer (1 mM MnCl2, 0.14M NaCl, 20 mM HEPES pH 7.2) at 4° C. overnight. Two hundred fifty μl of blocking buffer (1% BSA in divalent cation buffer) was added to each well 1 hour at 37° C. Plates were washed 3 times with wash buffer (TBS/0.05% Tween-20/1 mM MnCl2). The compound to be tested was solubilized in DMSO. A series of 1:3 dilutions were performed to achieve a concentration range of 0.45 nM-3 uM. Fifty μl of binding buffer (0.5% BSA in divalent cation buffer)/1% DMSO and 50 μl of the solutions to be tested were added to the appropriate wells and incubated for 1 hour. Fifty μl of 5dICAM-Fc (27 ng/ml) was added to the appropriate wells and 50 μl binding buffer was added to non-specific binding wells and incubated for 2 hours and washed. One hundred μl of 1:4000 HRP-goat anti-huIgG was added to each well and incubated for 1 hour and washed. One hundred μl of 1:1 TMB solution was added to each well and developed for 20 min at room temperature. Color development was stopped by adding 100 μl H3PO4 to each well. Absorbance was measured at 450 nm.

A further assay deals with Mac-1/ICAM-1 (Homo sapiens, UniProt P05107+P11215). In words: Mac-1/ICAM-1 ELISA. The settings on record: Mac-1 coated plates, 5dICAM-Fc binding. As to the method:
as §1, §2
(In general: In an ELISA, binding on a coated surface is turned into a signal by an enzyme label.)

Where [2] appears, read: sLFA-1 coated plates, 5dICAM-Fc binding, ELISA, read-out: LFA-1/ICAM (IC50).

Like-named read-outs stand apart in the source and are kept apart here.

sLFA-1/ICAM-1, sequence (P20701 26-1090 limits assumed, stated change not applied): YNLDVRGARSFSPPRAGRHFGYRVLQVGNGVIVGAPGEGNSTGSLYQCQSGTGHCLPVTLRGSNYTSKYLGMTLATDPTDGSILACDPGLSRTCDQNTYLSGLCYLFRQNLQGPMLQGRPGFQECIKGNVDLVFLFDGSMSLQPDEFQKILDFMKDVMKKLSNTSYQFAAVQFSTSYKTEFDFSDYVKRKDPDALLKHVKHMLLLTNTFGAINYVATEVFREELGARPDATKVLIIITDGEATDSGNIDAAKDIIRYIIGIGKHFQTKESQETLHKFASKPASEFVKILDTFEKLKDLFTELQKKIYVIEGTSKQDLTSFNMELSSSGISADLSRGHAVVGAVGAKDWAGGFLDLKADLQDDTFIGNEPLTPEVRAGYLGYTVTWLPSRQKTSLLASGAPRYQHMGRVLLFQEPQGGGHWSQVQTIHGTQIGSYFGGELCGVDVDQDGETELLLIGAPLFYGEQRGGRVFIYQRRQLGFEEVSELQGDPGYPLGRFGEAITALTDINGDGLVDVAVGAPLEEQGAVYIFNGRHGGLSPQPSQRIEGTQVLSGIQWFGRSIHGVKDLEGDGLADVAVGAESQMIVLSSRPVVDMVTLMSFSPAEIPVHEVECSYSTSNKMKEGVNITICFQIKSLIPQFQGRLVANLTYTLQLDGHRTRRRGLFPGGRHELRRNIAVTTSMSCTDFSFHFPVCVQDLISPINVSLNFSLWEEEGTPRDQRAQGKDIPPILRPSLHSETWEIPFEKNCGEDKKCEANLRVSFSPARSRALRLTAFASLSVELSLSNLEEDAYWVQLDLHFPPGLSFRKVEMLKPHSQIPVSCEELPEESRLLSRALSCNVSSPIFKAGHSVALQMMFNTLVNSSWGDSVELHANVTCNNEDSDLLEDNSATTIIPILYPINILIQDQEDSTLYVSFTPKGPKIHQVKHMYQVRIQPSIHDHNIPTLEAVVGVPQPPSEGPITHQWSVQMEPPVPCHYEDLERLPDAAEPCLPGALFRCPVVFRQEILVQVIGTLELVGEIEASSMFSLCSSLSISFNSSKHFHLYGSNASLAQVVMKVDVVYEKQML
sLFA-1/ICAM-1, sequence (P05107 23-700 limits assumed, stated change not applied): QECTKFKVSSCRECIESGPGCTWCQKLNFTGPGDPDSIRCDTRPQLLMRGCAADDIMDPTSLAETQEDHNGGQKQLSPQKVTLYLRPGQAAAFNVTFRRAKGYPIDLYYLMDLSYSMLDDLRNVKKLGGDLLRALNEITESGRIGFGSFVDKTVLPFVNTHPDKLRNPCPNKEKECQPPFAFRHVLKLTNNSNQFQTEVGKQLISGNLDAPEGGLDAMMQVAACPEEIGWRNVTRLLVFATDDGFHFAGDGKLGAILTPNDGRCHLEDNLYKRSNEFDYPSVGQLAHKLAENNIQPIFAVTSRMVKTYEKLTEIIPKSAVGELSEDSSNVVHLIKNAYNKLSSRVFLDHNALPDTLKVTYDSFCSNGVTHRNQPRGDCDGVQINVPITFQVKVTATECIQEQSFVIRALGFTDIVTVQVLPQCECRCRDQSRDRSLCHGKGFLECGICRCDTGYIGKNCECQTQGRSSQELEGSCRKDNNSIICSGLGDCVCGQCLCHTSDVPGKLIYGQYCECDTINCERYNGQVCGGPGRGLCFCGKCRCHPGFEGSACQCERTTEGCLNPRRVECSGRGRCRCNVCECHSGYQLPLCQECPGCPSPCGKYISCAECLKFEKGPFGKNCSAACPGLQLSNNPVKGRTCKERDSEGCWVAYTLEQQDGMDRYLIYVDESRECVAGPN
Mac-1/ICAM-1, sequence (P05107 23-769, other chains not shown): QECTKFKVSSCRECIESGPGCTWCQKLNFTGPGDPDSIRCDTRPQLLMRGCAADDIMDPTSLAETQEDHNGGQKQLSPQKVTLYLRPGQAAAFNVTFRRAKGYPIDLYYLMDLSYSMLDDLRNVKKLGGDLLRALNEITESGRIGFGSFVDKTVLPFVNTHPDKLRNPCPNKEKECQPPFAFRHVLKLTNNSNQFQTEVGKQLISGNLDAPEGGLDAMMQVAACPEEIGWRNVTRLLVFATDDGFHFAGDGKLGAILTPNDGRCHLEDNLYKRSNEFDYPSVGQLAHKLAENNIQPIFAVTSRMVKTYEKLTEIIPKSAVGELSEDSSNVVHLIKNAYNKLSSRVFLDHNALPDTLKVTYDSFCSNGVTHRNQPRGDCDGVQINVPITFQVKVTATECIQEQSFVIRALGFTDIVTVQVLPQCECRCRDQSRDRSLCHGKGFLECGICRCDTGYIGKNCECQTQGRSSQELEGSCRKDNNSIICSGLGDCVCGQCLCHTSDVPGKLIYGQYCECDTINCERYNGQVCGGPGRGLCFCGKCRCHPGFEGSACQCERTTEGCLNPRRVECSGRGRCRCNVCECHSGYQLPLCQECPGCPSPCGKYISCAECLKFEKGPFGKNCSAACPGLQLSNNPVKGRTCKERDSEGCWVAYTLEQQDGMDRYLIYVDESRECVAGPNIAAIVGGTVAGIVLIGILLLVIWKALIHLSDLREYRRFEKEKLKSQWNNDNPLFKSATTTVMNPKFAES

For `CC(=O)NC[C@H](NC(=O)c1c(C)nc(NCCCc2cccc3[nH]ncc23)nc1C)C(=O)O` [Example 4, (S)-3-acetylamino-2-({2-[3-(1H-indazol-4-yl)-propylamino]-4,6-dimethyl-pyrimidine-5-carbonyl}-amino)-propionic acid], the IC50 in assay [1] is 10000 nM; on sLFA-1/ICAM-1 (setting [2]), 120 nM.

`Cc1nc(NCCCc2cccc(O)c2)nc(C)c1C(=O)N[C@@H](CNC(=O)c1cscn1)C(=O)O` [Example 46, (S)-2-({2-[3-(3-hydroxy-phenyl)-propylamino]-4,6-dimethyl-pyrimidine-5-carbonyl}-amino)-3-[(thiazole-4-carbonyl)-amino]-propionic acid]: the IC50 in assay [1] amounted to 753 nM; at sLFA-1/ICAM-1 (setting [2]), 26 nM.

Take `Cc1nc(NCCCc2ccc3cn[nH]c3c2)nc(C)c1C(=O)N[C@@H](CNC(=O)c1cccs1)C(=O)O` [Example 63, (S)-2-({2-[3-(1H-Indazol-6-yl)-propylamino]-4,6-dimethyl-pyrimidine-5-carbonyl}-amino)-3-[(thiophene-2-carbonyl)-amino]-propionic acid]: the IC50 came to 670 nM at Mac-1/ICAM-1 and 323 nM on sLFA-1/ICAM-1 (setting [2]).

Turning to `Cc1nc(NC/C=C\c2cccc(O)c2)nc(C)c1C(=O)N[C@@H](CNC(=O)c1cccs1)C(=O)O` [Example 73, (S)-2-({2-[(Z)-3-(3-Hydroxy-phenyl)-allylamino]-4,6-dimethyl-pyrimidine-5-carbonyl}-amino)-3-[(thiophene-2-carbonyl)-amino]-propionic acid], the IC50 is 809 nM in assay [1] and 56 nM on sLFA-1/ICAM-1 (setting [2]).

Turning to `Cc1nc(NC/C=C/c2cccc(O)c2)nc(C)c1C(=O)N[C@@H](CNC(=O)c1cccs1)C(=O)O` [Example 74, (S)-2-({2-[(E)-3-(3-Hydroxy-phenyl)-allylamino]-4,6-dimethyl-pyrimidine-5-carbonyl}-amino)-3-[(thiophene-2-carbonyl)-amino]-propionic acid], the IC50 in assay [1] was found to be 2060 nM; on sLFA-1/ICAM-1 (setting [2]) it was 152 nM.

Turning to `Cc1nc(NCCCc2cccc(O)c2)ncc1C(=O)N[C@@H](CNC(=O)c1cccs1)C(=O)O` [Example 76, (S)-2-({2-[3-(3-Hydroxy-phenyl)-propylamino]-4-methyl-pyrimidine-5-carbonyl}-amino)-3-[(thiophene-2-carbonyl)-amino]-propionic acid], the figures for the IC50 (in assay [1]; on sLFA-1/ICAM-1 (setting [2])) were 1760 nM and 9 nM, respectively.

In the case of `CCc1nc(NCCCc2cccc(O)c2)nc(C)c1C(=O)N[C@@H](CNC(=O)c1cccs1)C(=O)O` [Example 78, (S)-2-({4-Ethyl-2-[3-(3-hydroxy-phenyl)-propylamino]-6-methyl-pyrimidine-5-carbonyl}-amino)-3-[(thiophene-2-carbonyl)-amino]-propionic acid], the results for the IC50 (in assay [1]; on sLFA-1/ICAM-1 (setting [2])) were 766 nM and 20 nM, respectively.

For the compound `Cc1ccc(C(=O)NC[C@H](NC(=O)c2c(C)nc(NCCCc3cccc(O)c3)nc2C)C(=O)O)s1` [Example 87, (S)-2-({2-[3-(3-hydroxy-phenyl)-propylamino]-4,6-dimethyl-pyrimidine-5-carbonyl}-amino)-3-[(5-methyl-thiophene-2-carbonyl)-amino]-propionic acid], the IC50 in assay [1] came to 1430 nM; at sLFA-1/ICAM-1 (setting [2]), 4 nM.

With `Cc1nc(NCCCc2cccc(O)c2)nc(C)c1C(=O)N[C@@H](CNC(=O)c1cnccn1)C(=O)O` [Example 93, (S)-2-({2-[3-(3-hydroxy-phenyl)-propylamino]-4,6-dimethyl-pyrimidine-5-carbonyl}-amino)-3-[(pyrazine-2-carbonyl)-amino]-propionic acid], the IC50 in assay [1] amounted to 2300 nM; on sLFA-1/ICAM-1 (setting [2]), 29 nM.

On to `Cc1nc(NCCCc2cccc(O)c2)nc(C)c1C(=O)N[C@@H](CNC(=O)c1ccc(Cl)s1)C(=O)O` [Example 95, (S)-3-[(5-Chloro-thiophene-2-carbonyl)-amino]-2-({2-[3-(3-hydroxy-phenyl)-propylamino]-4,6-dimethyl-pyrimidine-5-carbonyl}-amino)-propionic acid], for which the IC50 at sLFA-1/ICAM-1 (setting [2]) turned out to be 265 nM.

In the case of `Cc1cccc(C(=O)NC[C@H](NC(=O)c2c(C)nc(NCCCc3cccc(O)c3)nc2C)C(=O)O)c1` [Example 97, (S)-2-({2-[3-(3-hydroxy-phenyl)-propylamino]-4,6-dimethyl-pyrimidine-5-carbonyl}-amino)-3-(3-methyl-benzoylamino)-propionic acid], the IC50 at sLFA-1/ICAM-1 (setting [2]) was 177 nM.

As to `Cc1nc(NCCCc2cccc(O)c2)nc(C)c1C(=O)N[C@@H](CNC(=O)C12CC3CC(CC(C3)C1)C2)C(=O)O` [Example 99, (S)-3-[(Adamantane-1-carbonyl)-amino]-2-({2-[3-(3-hydroxy-phenyl)-propylamino]-4,6-dimethyl-pyrimidine-5-carbonyl}-amino)-propionic acid], the IC50 at sLFA-1/ICAM-1 (setting [2]) came to 287 nM.

On to `Cc1cnc(C(=O)NC[C@H](NC(=O)c2c(C)nc(NCCCc3cccc(O)c3)nc2C)C(=O)O)cn1` [Example 101, (S)-2-({2-[3-(3-Hydroxy-phenyl)-propylamino]-4,6-dimethyl-pyrimidine-5-carbonyl}-amino)-3-[(5-methyl-pyrazine-2-carbonyl)-amino]-propionic acid], for which the IC50 in assay [1] stood at 6340 nM; at sLFA-1/ICAM-1 (setting [2]), 52 nM.

`Cc1nc(NCCCc2cccc(O)c2)nc(C)c1C(=O)N[C@@H](CNC(=O)c1sccc1Cl)C(=O)O` [Example 103, (S)-3-[(3-Chloro-thiophene-2-carbonyl)-amino]-2-({2-[3-(3-hydroxy-phenyl)-propylamino]-4,6-dimethyl-pyrimidine-5-carbonyl}-amino)-propionic acid]: the IC50 at sLFA-1/ICAM-1 (setting [2]) is 66 nM.

As for `CCc1ccc(C(=O)NC[C@H](NC(=O)c2c(C)nc(NCCCc3cccc(O)c3)nc2C)C(=O)O)s1` [Example 105, (S)-[(5-Ethyl-thiophene-2-carbonyl)-amino]-2-({2-[3-(3-hydroxy-phenyl)-propylamino]-4,6-dimethyl-pyrimidine-5-carbonyl}-amino)-3-propionic acid], on sLFA-1/ICAM-1 (setting [2]), the IC50 is 103 nM.

For `Cc1nc(NCCCc2cccc(O)c2)nc(C)c1C(=O)N[C@@H](CNC(=O)Nc1ccccc1)C(=O)O` [Example 107, (S)-2-({2-[3-(3-hydroxy-phenyl)-propylamino]-4,6-dimethyl-pyrimidine-5-carbonyl}-amino)-3-(3-phenyl-ureido)-propionic acid], on sLFA-1/ICAM-1, the IC50 worked out at 166 nM.

On to `COC(=O)NC[C@H](NC(=O)c1c(C)nc(NCCCc2cccc(O)c2)nc1C)C(=O)O` [Example 109, (S)-2-({2-[3-(3-Hydroxy-phenyl)-propylamino]-4,6-dimethyl-pyrimidine-5-carbonyl}-amino)-3-methoxycarbonylamino-propionic acid], for which, at sLFA-1/ICAM-1 (setting [2]), the IC50 was determined as 198 nM.

For the compound `Cc1nc(NCCCc2cccc(O)c2)nc(C)c1C(=O)N[C@@H](CNC(=O)OCc1ccccc1)C(=O)O` [Example 111, (S)-3-Benzyloxycarbonylamino-2-({2-[3-(3-Hydroxy-phenyl)-propylamino]-4,6-dimethyl-pyrimidine-5-carbonyl}-amino)-propionic acid], the IC50 in assay [1] was found to be 4880 nM; at sLFA-1/ICAM-1 (setting [2]), 56 nM.

On to `Cc1nc(NCCCc2cccc(O)c2)nc(C)c1C(=O)N[C@@H](CNC(=O)N(C)C)C(=O)O` [Example 113, (S)-3-(3,3-Dimethyl-ureido)-2-({2-[3-(3-Hydroxy-phenyl)-propylamino]-4,6-dimethyl-pyrimidine-5-carbonyl}-amino)-propionic acid], for which the IC50 was 4180 nM in assay [1] and 74 nM on sLFA-1/ICAM-1 (setting [2]).

For the compound `Cc1nc(NCCCc2cccc(O)c2)nc(C)c1C(=O)N[C@@H](CNC(=O)N1CCCc2ccccc21)C(=O)O` [Example 115, (S)-3-[(3,4-Dihydro-2H-quinoline-1-carbonyl)-amino]-2-({2-[3-(3-hydroxy-phenyl)-propylamino]-4,6-dimethyl-pyrimidine-5-carbonyl}-amino)-propionic acid], the IC50 at sLFA-1/ICAM-1 (setting [2]) amounted to 456 nM.

Take `Cc1nc(NC2CCc3cccc(O)c3C2)nc(C)c1C(=O)N[C@@H](CNC(=O)c1cnccn1)C(=O)O` (stereo partly drawn) [Example 117, (S)-2-{[2-(8-Hydroxy-1,2,3,4-tetrahydro-naphthalen-2-ylamino)-4,6-dimethyl-pyrimidine-5-carbonyl]-amino}-3-[(pyrazine-2-carbonyl)-amino]-propionic acid]: the figures for the IC50 (in assay [1]; on sLFA-1/ICAM-1 (setting [2])) were 5110 nM and 175 nM, respectively.

The record behind these values is patent US20120270875A1, “PYRIMIDINE AMIDE COMPOUNDS” (priority 2011, published 2012).
